Reference: patent publication US20170226518A1, “COMPOSITIONS AND METHODS FOR TREATING CANCER” (Autotelic LLC, priority 2016, published 2017)
In the oligonucleotide strings, read from the 5' end, every base follows the letter of its sugar. An asterisk marks phosphorothioate; unmarked linkages are phosphodiester. Other units and linkages are bracketed, terminal groups are in braces. A string of capitals states the bases alone. d = 2'-deoxy (DNA)

Experiments:
[1] = test system: HUP-T3 pancreatic cancer cells; test: Cellular proliferation of HUP-T3 pancreatic cancer cells in vitro; format: cell-based; conditions: 10 μM AP12009 as monotherapy
Description: (§1) The aim of the study was to determine the effect of AP12009 (trabedersen) treatment in combination with 5-Fluorouracil (5-FU) on TGFβ2 secretion and on cellular proliferation of HUP-T3 pancreatic cancer cells and WiDr colon cancer cells in vitro.
(§2) 10 μM of AP12009 as monotherapy decreased cell proliferation (53% proliferation of untreated control) and TGFβ2 expression (42% of untreated control) in HUP-T3 cells.

TGFβ2 = TGFβ2 secretion/expression in HUP-T3 pancreatic cancer cells; format: cell-based; conditions: 10 μM AP12009 as monotherapy
Description: as §1, §2

[2] = Phase I/II dose escalation study P-001: safety and tolerability (MTD, DLT, TEAE, SAE), i.v. infusion; format: in vivo, human
Description: Over-expression of transforming growth factor-beta 2 (TGF-β2) is associated with poor prognosis and plays a key role for malignant progression of various tumors by inducing proliferation, metastasis, angiogenesis and immunosuppression. P-001 trial of trabedersen—Safety and Tolerability of AP 12009 (trabedersen), Administered I.V. in Patients With Advanced Tumors Known to Overproduce TGFβ2, was evaluated to determine if treatment with trabedersen primed the tumors to subsequent chemotherapy.
In the instant study, the primary objective was to determine the Maximum Tolerated Dose (MTD) and the Dose Limited Toxicity (DLT) of two cycles of trabedersen administered intravenously (i.v.) for either 7 days every other week (i.e. 7 days on/7 days off) or for 4 days every other week (4 days on/10 days off). The secondary objective included assessment of antitumor activity of trabedersen administered intravenously for either 7 days every other week (i.e. 7 days on/7 days off) or for 4 days every other week (4 days on/10 days off).
The escalation scheme of this study aimed to determinate the MTD of two cycles of trabedersen (so called ‘core study period’) administered as a continuous i.v. infusion for 7 days every other week (7-days-on/7-days-off) or for 4 days every other week (4-days-on/10-days-off).
In general, it was planned to enroll a cohort of at least 3 evaluable patients per treatment group. For each cohort, the safety data obtained until end of the core study period (period for DLT-assessment, Cycle 1 and Cycle 2) were assessed in an interim analysis and evaluated by a Data and Safety Monitoring Board (DSMB). […] If 2 of these 3 patients experienced a DLT, the number of evaluable patients for the subsequent treatment group was increased to 6 for further evaluation of toxicity. Patients who were withdrawn from the study due to adverse events (AEs) attributed to DLT by the treating clinician, were not replaced but were used to determine the MTD and to evaluate the safety of the study drug. If patients were withdrawn due to other reasons, they were replaced until the treatment group was complete.
The MTD was determined according to the following procedure: If 2 out of 3 patients of 1 cohort experienced a DLT, 3 more patients were enrolled in the same treatment group. If at least 1 of these additional 3 patients also met the toxicity criteria for a DLT, the MTD for two cycles was determined; otherwise the dose escalation was continued upon agreement with the DSMB. MTD for two cycles was then defined as the dose at which no more than 2 out of 3, or 2 out of 6 patients of the same treatment group experienced a DLT. This procedure was followed until the MTD was reached.
After dose escalation had been completed, an additional larger cohort of patients was enrolled and treated with a dose of 140 mg/m^2/day employing the 4-days-on/10-days-off schedule, with endorsement by the DSMB. This cohort was to include at least 12 patients with a histologically or cytologically confirmed diagnosis of stage III or IV pancreatic cancer, corresponding to AJCC 1997 stage IVa and IVb, respectively, and at least 12 patients with stage III or IV melanoma.
The safety population comprised of 61 patients, representing all patients for whom at least once a trabedersen infusion was started. According to the protocol, the MTD was determined according to the following procedure: if 2 out of 3 patients of one cohort experience dose-limiting toxicity, 3 more patients were enrolled in the same treatment group. If at least 1 more patient of this second cohort met the toxicity criteria, MTD for two cycles has been determined (otherwise escalation was continued). MTD for two cycles was then defined as the dose at which no more than 2 out of 3 or 2 out of 6 patients of the same treatment group experienced DLT. […] In the case that 2 patients of the first cohort experienced DLTs that clearly indicated attainment of the MTD, the second cohort could also be omitted. […]

[3] = 4-days-on and 10-days-off schedule
[4] = 4-days-on, 10-daysoff schedule (N = 44)
[5] = 7-days-on and 7-days-off schedule
[6] = 7-days-on, 7-daysoff schedule (N = 17)

Substance: trabedersen: TGFβ2 specific phosphorothioate antisense oligodeoxynucleotide with the sequence 5′-CGGCATGTCTATTTTGTA-3′ (SEQ ID No: 1) (antisense dC*dG*dG*dC*dA*dT*dG*dT*dC*dT*dA*dT*dT*dT*dT*dG*dT*dA)
- cell proliferation (% proliferation of untreated control) [1]: 53%
- TGFβ2 expression (% of untreated control) (TGFβ2): 42%
- DLT observed ([2]; 140 mg/m^2/day, 4-days-on and 10-days-off schedule, one patient): dose-limiting Grade 3 upper gastrointestinal hemorrhage
- patients who experienced a DLT ([2]; 240 mg/m^2/day, 7-days-on and 7-days-off, 2 Grade 3 thrombocytopenia, 1 Grade 3 maculopapular rash): 3 patients
- frequency of patients with TEAEs that led to treatment discontinuation [2, 3]: 15.9%
- patients with TEAEs that led to treatment discontinuation [2, 3]: 7 patients
- Any SAE: No. (%) of patients with SAE [2, 4]: 18 (40.9) No. (%) of patients
- Any SAE: No. of SAEs [2, 4]: 28 No. of SAEs
- Ascites: No. (%) of patients with SAE [2, 4]: 0 No. (%) of patients
- Cancer Pain: No. (%) of patients with SAE [2, 4]: 2 (4.5) No. (%) of patients
- Cancer Pain: No. of SAEs [2, 4]: 2 No. of SAEs
- Catheter related Infection: No. (%) of patients with SAE [2, 4]: 1 (2.3) No. (%) of patients
- Catheter related Infection: No. of SAEs [2, 4]: 1 No. of SAEs
- Cholangitis: No. (%) of patients with SAE [2, 4]: 3 (6.8) No. (%) of patients
- Cholangitis: No. of SAEs [2, 4]: 3 No. of SAEs
- Cholestasis: No. (%) of patients with SAE [2, 4]: 1 (2.3) No. (%) of patients
- Cholestasis: No. of SAEs [2, 4]: 1 No. of SAEs
- GI hemorrhage: No. (%) of patients with SAE [2, 4]: 1 (2.3) No. (%) of patients
- GI hemorrhage: No. of SAEs [2, 4]: 2 No. of SAEs
- Pneumonia: No. (%) of patients with SAE [2, 4]: 0 No. (%) of patients
- Upper GI hemorrhage: No. (%) of patients with SAE [2, 4]: 1 (2.3) No. (%) of patients
- Upper GI hemorrhage: No. of SAEs [2, 4]: 1 No. of SAEs
- frequency of patients with TEAEs that led to treatment discontinuation [2, 5]: 41.2%
- patients with TEAEs that led to treatment discontinuation [2, 5]: 7 patients
- daily dose of MTD ([2]; 7-days-on and 7-days-off schedule, approx.): approx. 4 mg/kg/day
- Any SAE: No. (%) of patients with SAE [2, 6]: 12 (70.6) No. (%) of patients
- Any SAE: No. of SAEs [2, 6]: 28 No. of SAEs
- Ascites: No. (%) of patients with SAE [2, 6]: 3 (17.6) No. (%) of patients
- Ascites: No. of SAEs [2, 6]: 3 No. of SAEs
- Cancer Pain: No. (%) of patients with SAE [2, 6]: 0 No. (%) of patients
- Catheter related Infection: No. (%) of patients with SAE [2, 6]: 2 (11.8) No. (%) of patients
- Catheter related Infection: No. of SAEs [2, 6]: 2 No. of SAEs
- Cholangitis: No. (%) of patients with SAE [2, 6]: 1 (5.9) No. (%) of patients
- Cholangitis: No. of SAEs [2, 6]: 1 No. of SAEs
- Cholestasis: No. (%) of patients with SAE [2, 6]: 1 (5.9) No. (%) of patients
- Cholestasis: No. of SAEs [2, 6]: 1 No. of SAEs
- GI hemorrhage: No. (%) of patients with SAE [2, 6]: 2 (11.8) No. (%) of patients
- GI hemorrhage: No. of SAEs [2, 6]: 3 No. of SAEs
- Pneumonia: No. (%) of patients with SAE [2, 6]: 3 (17.6) No. (%) of patients
- Pneumonia: No. of SAEs [2, 6]: 3 No. of SAEs
- Upper GI hemorrhage: No. (%) of patients with SAE [2, 6]: 1 (5.9) No. (%) of patients
- Upper GI hemorrhage: No. of SAEs [2, 6]: 1 No. of SAEs
- Maximum Tolerated Dose (MTD) ([2]; 4 days on and 10 days off regimen, MTD not reached at highest dose tested): > 330 mg/m^2/d
- Maximum Tolerated Dose (MTD) ([2]; 7 days on and 7 days off regimen, continuous i.v. infusion, two cycles): 160 mg/m^2/d
- Any SAE: No. (%) of patients with SAE ([2]; Total (N = 61)): 30 (49.2) No. (%) of patients
- Any SAE: No. of SAEs ([2]; Total (N = 61)): 56 No. of SAEs
- Ascites: No. (%) of patients with SAE ([2]; Total (N = 61)): 3 (4.9) No. (%) of patients
- Ascites: No. of SAEs ([2]; Total (N = 61)): 3 No. of SAEs
- Cancer Pain: No. (%) of patients with SAE ([2]; Total (N = 61)): 2 (3.3) No. (%) of patients
- Cancer Pain: No. of SAEs ([2]; Total (N = 61)): 2 No. of SAEs
- Catheter related Infection: No. (%) of patients with SAE ([2]; Total (N = 61)): 3 (4.9) No. (%) of patients
- Catheter related Infection: No. of SAEs ([2]; Total (N = 61)): 3 No. of SAEs
- Cholangitis: No. (%) of patients with SAE ([2]; Total (N = 61)): 4 (6.6) No. (%) of patients
- Cholangitis: No. of SAEs ([2]; Total (N = 61)): 4 No. of SAEs
- Cholestasis: No. (%) of patients with SAE ([2]; Total (N = 61)): 2 (3.3) No. (%) of patients
- Cholestasis: No. of SAEs ([2]; Total (N = 61)): 2 No. of SAEs
- GI hemorrhage: No. (%) of patients with SAE ([2]; Total (N = 61)): 3 (4.9) No. (%) of patients
- GI hemorrhage: No. of SAEs ([2]; Total (N = 61)): 3 No. of SAEs
- Pneumonia: No. (%) of patients with SAE ([2]; Total (N = 61)): 3 (4.9) No. (%) of patients
- Pneumonia: No. of SAEs ([2]; Total (N = 61)): 3 No. of SAEs
- Upper GI hemorrhage: No. (%) of patients with SAE ([2]; Total (N = 61)): 2 (3.3) No. (%) of patients
- Upper GI hemorrhage: No. of SAEs ([2]; Total (N = 61)): 2 No. of SAEs
- frequency of patients with TEAEs that led to treatment discontinuation ([2]; all patients): 23.0%
- patients with TEAEs that led to treatment discontinuation ([2]; all patients): 14 patients
- total of TEAEs that led to treatment discontinuation ([2]; all patients): 23 TEAEs
- frequency of patients with TEAEs that led to treatment discontinuation ([2]; colorectal cancer): 40.0%
- patients with TEAEs that led to treatment discontinuation ([2]; colorectal cancer): 2 patients
- frequency of patients with TEAEs that led to treatment discontinuation ([2]; melanoma): 15.8%
- patients with TEAEs that led to treatment discontinuation ([2]; melanoma): 3 patients
- frequency of patients with TEAEs that led to treatment discontinuation ([2]; pancreatic cancer): 24.3%
- patients with TEAEs that led to treatment discontinuation ([2]; pancreatic cancer): 9 patients
- patients for whom a DLT was proclaimed ([2]; whole study: 2 pancreatic carcinoma, 2 colorectal cancer): 4 patients
